From patent US9132084B2, “Methods for administration and formulations for the treatment of regional adipose tissue” (NEOTHETICS, INC., priority 2009, dated 2015)

Test: Plasma pharmacokinetics following a single intravenous and subcutaneous injection of a combination of formoterol and budesonide
Conditions: for AUC(0-inf): AUCinf; for bioavailability: F (bioavailability); for concentration at 0.0333 hr: female 2-0623, 0.0333 hr; for concentration at 0.0833 hr: female 2-0623, 0.0833 hr; for concentration at 0.167 hr: female 2-0623, 0.167 hr; for concentration at 0.333 hr: female 2-0623, 0.333 hr; for concentration at 0.5 hr: female 2-0623, 0.500 hr; for concentration at 0.75 hr: female 2-0623, 0.750 hr; for concentration at 1 hr: female 2-0623, 1.00 hr; for concentration at 2 hr: female 2-0623, 2.00 hr; for concentration at 4 hr: female 2-0623, 4.00 hr; for concentration at 8 hr: female 2-0623, 8.00 hr
Procedure: Formoterol fumarate dehydrate and budesonide were formulated in 2% PEG-400 in saline. 1 male and 1 female non-naive Gottingen minipigs (8 to 12 kg upon receipt per protocol) were utilized. The animals were housed individually.
Each minipig received a single IV injection of the combined formoterol and budesonide formulation followed by testing of the SC doses. Each dose was separated by at least a 3-day washout period. The IV dose was administered by slow bolus (1 minute; 0.017 hr) into the marginal ear vein, whereas the first SC dose was administered as a bolus injection along the back (neck-region) where there was a longitudinal fat depot. The second SC dose was distributed in 5 separate proximal SC injections separated by approximately 2 cm. Blood samples (approximately 4 mL) were collected via the branchiocephalic plexus at pre-dose and at 2, 5, 10, 20, 30 and 45 minutes, and at 1, 2, 4, 8 and 24 hr post-dose. Blood samples were placed in tubes containing K2-EDTA as the anticoagulant. Samples were processed to plasma by centrifugation and stored frozen at approximately −70° C. (+/−15° C.) until shipment for analysis.
Plasma samples were analyzed for formoterol and budesonide using a qualified liquid chromatography/mass spectrometry/mass mass spectrometry (LC/MS/MS) method. The lower limit of quantitation (LLOQ) was 1.00 pg/mL for formoterol and 25.0 pg/mL for budesonide.
Non-compartmental pharmacokinetic parameters were calculated using WinNonlin 5.2 software, NCA model 202, IV infusion input for the IV data and NCA model 200, extravascular input for the SC data. Individual plasma concentrations for each animal were used in the calculation of pharmacokinetic parameters. Nominal collection times and doses were used in the calculations. The area under the plasma concentration-time curve (AUC) was calculated using linear trapezoidal approximation (linear/log interpolation). Concentration values below the assay limit of quantitation were set to zero for calculations. The maximum plasma concentration (Cmax) and the time of its occurrence (Tmax) were verified by inspection. The half-life (t1/2) values were calculated using the last 3 plasma concentrations with nonzero values, if data permitted.

[1] = female, Gottingen, minipig, in vivo, formoterol 0.4 μg/kg SC1 single site, combination, female 2-0623
[2] = female, Gottingen, minipig, in vivo, formoterol 0.4 μg/kg SC5 (5 sites), combination, female 2-0623
[3] = female, Gottingen, minipig, in vivo, Plasma concentration of formoterol, SC1 0.4 μg/kg, combination
[4] = female, Gottingen, minipig, in vivo, Plasma concentration of formoterol, SC5 0.4 μg/kg, combination
[5] = female, Gottingen, minipig, in vivo, iv, 0.4 ug/kg
[6] = female, Gottingen, minipig, in vivo, iv, 0.4 ug/kg, formoterol 0.4 μg/kg IV in combination with budesonide, female 2-0623
[7] = female, Gottingen, minipig, in vivo, iv, Plasma concentration of formoterol, IV 0.4 μg/kg, combination

With `COc1ccc(CC(C)NCC(O)c2ccc(O)c(NC=O)c2)cc1` (centres unmarked) [Formoterol, formoterol] as the compound, how does the “Plasma concentration of formoterol” value (IV 0.4 μg/kg, combination, female 2-0623, 24.0 hr) read?
Its value is “<LLOQ (LLOQ = 1.00 pg/mL for formoterol)”.

And the “Plasma concentration of formoterol” value (IV 0.4 μg/kg, combination, male 1-0771, 0 hr)?
The value was “<LLOQ (LLOQ = 1.00 pg/mL for formoterol)”.

What about the “Plasma concentration of formoterol” value (IV 0.4 μg/kg, combination, male 1-0771, 24.0 hr) of the same compound?
The value was “<LLOQ (LLOQ = 1.00 pg/mL for formoterol)”.

What about the “Plasma concentration of formoterol” value (SC1 0.4 μg/kg, combination, female 2-0623, 0 hr) of the same compound?
The value was “<LLOQ (LLOQ = 1.00 pg/mL for formoterol)”.

And the “Plasma concentration of formoterol” value (SC1 0.4 μg/kg, combination, female 2-0623, 24.0 hr)?
The value was “<LLOQ (LLOQ = 1.00 pg/mL for formoterol)”.

What about the “Plasma concentration of formoterol” value (SC5 0.4 μg/kg, combination, female 2-0623, 0 hr) of the same compound?
The value was “<LLOQ (LLOQ = 1.00 pg/mL for formoterol)”.

What about the “Plasma concentration of formoterol” value (SC5 0.4 μg/kg, combination, male 1-0771, 0 hr) of the same compound?
Its value is “<LLOQ (LLOQ = 1.00 pg/mL for formoterol)”.

What about the AUC(0-inf) [1] of the same compound?
Its AUC(0-inf) is 0.378 ng·h/mL.

What about the AUC(0-inf) [2] of the same compound?
The AUC(0-inf) was 0.577 ng·h/mL.

And the Cmax [1]?
Its Cmax is 0.284 ng/mL.

And the Cmax [2]?
Its Cmax is 0.256 ng/mL.

What about the bioavailability [1] of the same compound?
The bioavailability was 115%.

What about the bioavailability [2] of the same compound?
Its bioavailability is 176%.

What about the concentration at 0.0333 hr [3] of the same compound?
The concentration at 0.0333 hr was 0.169 ng/mL.

And the concentration at 0.0833 hr [3]?
The concentration at 0.0833 hr was 0.284 ng/mL.

What about the concentration at 0.167 hr [3] of the same compound?
Its concentration at 0.167 hr is 0.237 ng/mL.

What about the concentration at 0.333 hr [3] of the same compound?
The concentration at 0.333 hr was 0.156 ng/mL.

What about the concentration at 0.5 hr [3] of the same compound?
The concentration at 0.5 hr was 0.127 ng/mL.

What about the concentration at 0.75 hr [3] of the same compound?
Its concentration at 0.75 hr is 0.0789 ng/mL.

And the concentration at 1 hr [3]?
Its concentration at 1 hr is 0.0678 ng/mL.

And the concentration at 2 hr [3]?
Its concentration at 2 hr is 0.0512 ng/mL.

And the concentration at 4 hr [3]?
Its concentration at 4 hr is 0.0285 ng/mL.

What about the concentration at 8 hr [3] of the same compound?
The concentration at 8 hr was 0.00858 ng/mL.

And the concentration at 0.0333 hr [4]?
Its concentration at 0.0333 hr is 0.0946 ng/mL.

What about the concentration at 0.0833 hr [4] of the same compound?
Its concentration at 0.0833 hr is 0.256 ng/mL.

What about the concentration at 0.167 hr [4] of the same compound?
The concentration at 0.167 hr was 0.178 ng/mL.

What about the concentration at 0.333 hr [4] of the same compound?
Its concentration at 0.333 hr is 0.131 ng/mL.

And the concentration at 0.5 hr [4]?
The concentration at 0.5 hr was 0.1 ng/mL.

And the concentration at 0.75 hr [4]?
The concentration at 0.75 hr was 0.0826 ng/mL.

And the concentration at 1 hr [4]?
Its concentration at 1 hr is 0.0628 ng/mL.

What about the concentration at 2 hr [4] of the same compound?
The concentration at 2 hr was 0.0444 ng/mL.

What about the concentration at 4 hr [4] of the same compound?
Its concentration at 4 hr is 0.026 ng/mL.

And the concentration at 8 hr [4]?
The concentration at 8 hr was 0.0103 ng/mL.

And the concentration at 24 hr (female, Gottingen, minipig, in vivo, Plasma concentration of formoterol, SC5 0.4 μg/kg, combination, female 2-0623, 24.0 hr)?
Its concentration at 24 hr is 0.00695 ng/mL.

And the Tmax [1]?
The Tmax was 5 min.

And the Tmax [2]?
The Tmax was 5 min.

What about the Vd [5] of the same compound?
Its Vd is 3.17 L/kg.

What about the clearance [5] of the same compound?
Its clearance is 20.3 mL/min/kg.

And the AUC(0-inf) [6]?
Its AUC(0-inf) is 0.328 ng·h/mL.

What about the Cmax [6] of the same compound?
The Cmax was 0.9 ng/mL.

What about the Tmax [6] of the same compound?
The Tmax was 2 min.

What about the half-life (female, Gottingen, minipig, in vivo, iv, 0.4 ug/kg, t1/2, formoterol 0.4 μg/kg IV in combination with budesonide, female 2-0623) of the same compound?
Its half-life is 2.86 h.

What about the concentration at 0 hr (female, Gottingen, minipig, in vivo, iv, Plasma concentration of formoterol, IV 0.4 μg/kg, combination, female 2-0623, 0 hr) of the same compound?
Its concentration at 0 hr is 0.00353 ng/mL.

And the concentration at 0.0333 hr [7]?
Its concentration at 0.0333 hr is 0.9 ng/mL.

What about the concentration at 0.0833 hr [7] of the same compound?
Its concentration at 0.0833 hr is 0.204 ng/mL.

What about the concentration at 0.167 hr [7] of the same compound?
Its concentration at 0.167 hr is 0.11 ng/mL.

And the concentration at 0.333 hr [7]?
Its concentration at 0.333 hr is 0.0735 ng/mL.

And the concentration at 0.5 hr [7]?
Its concentration at 0.5 hr is 0.0984 ng/mL.

What about the concentration at 0.75 hr [7] of the same compound?
Its concentration at 0.75 hr is 0.0614 ng/mL.

What about the concentration at 1 hr [7] of the same compound?
Its concentration at 1 hr is 0.0454 ng/mL.

And the concentration at 2 hr [7]?
Its concentration at 2 hr is 0.0313 ng/mL.

What about the concentration at 4 hr [7] of the same compound?
The concentration at 4 hr was 0.0184 ng/mL.

And the concentration at 8 hr [7]?
The concentration at 8 hr was 0.00726 ng/mL.

What about the half-life (female, Gottingen, minipig, in vivo, t1/2, formoterol 0.4 μg/kg SC1 single site, combination, female 2-0623) of the same compound?
The half-life was 2.33 h.

What about the half-life (female, Gottingen, minipig, in vivo, t1/2, formoterol 0.4 μg/kg SC5 (5 sites), combination, female 2-0623) of the same compound?
The half-life was 12.8 h.

What about the tlast (formoterol 0.4 μg/kg IV in combination with budesonide, female 2-0623) of the same compound?
Its tlast is 8.00 h.
